biological target: T1, full-length human Mineralocorticoid Receptor (MR) (Homo sapiens, UniProt P08235); test: human MR NH Pro assay (PathHunter Protein:Protein interaction assay), MR antagonism; format: cell-based; details: IP = inflection point of the dose-response curve; CHO-K1 cells overexpressing human MR, aldosterone about 0.3 nM to about 1 nM, 6 hours at 37° C.
T1 construct: host or cells: PathHunter CHO-K1 MR cells
T1 sequence (P08235 1-984): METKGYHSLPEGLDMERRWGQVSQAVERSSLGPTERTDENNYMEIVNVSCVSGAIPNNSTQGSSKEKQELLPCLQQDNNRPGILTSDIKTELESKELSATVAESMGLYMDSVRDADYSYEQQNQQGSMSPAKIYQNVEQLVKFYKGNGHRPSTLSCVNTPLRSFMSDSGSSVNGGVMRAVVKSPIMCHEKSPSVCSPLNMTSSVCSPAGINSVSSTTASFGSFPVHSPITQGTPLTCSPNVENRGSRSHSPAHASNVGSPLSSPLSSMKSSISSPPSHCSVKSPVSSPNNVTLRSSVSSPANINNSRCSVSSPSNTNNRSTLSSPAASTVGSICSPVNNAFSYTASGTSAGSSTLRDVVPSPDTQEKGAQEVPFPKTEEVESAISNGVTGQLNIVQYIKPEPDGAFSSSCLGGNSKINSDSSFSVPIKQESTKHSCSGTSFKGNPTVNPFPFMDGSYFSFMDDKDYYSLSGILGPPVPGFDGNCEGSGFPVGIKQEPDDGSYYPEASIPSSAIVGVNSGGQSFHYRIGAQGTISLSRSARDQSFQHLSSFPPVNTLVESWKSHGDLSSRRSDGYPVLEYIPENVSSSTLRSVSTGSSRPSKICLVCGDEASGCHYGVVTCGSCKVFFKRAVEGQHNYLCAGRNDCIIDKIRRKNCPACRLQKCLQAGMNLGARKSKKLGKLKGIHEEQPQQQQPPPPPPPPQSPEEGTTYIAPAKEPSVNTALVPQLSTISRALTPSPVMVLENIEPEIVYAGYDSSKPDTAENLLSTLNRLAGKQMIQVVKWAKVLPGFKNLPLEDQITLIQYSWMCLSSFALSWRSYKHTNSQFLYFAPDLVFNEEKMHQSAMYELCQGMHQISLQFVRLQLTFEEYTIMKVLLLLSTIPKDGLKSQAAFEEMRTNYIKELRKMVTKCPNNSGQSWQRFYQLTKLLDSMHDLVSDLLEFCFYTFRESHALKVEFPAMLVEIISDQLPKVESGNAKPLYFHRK
Description: The activity of the compounds of the present invention regarding mineralocorticoid receptor antagonism can be evaluated using the following assay.
Assessment of MR Potency in HMR NH Pro Assay
The human MR NH Pro assay is a commercially available PathHunter™ Protein:Protein interaction assay (DiscoveRx; http://www.discoverx.com/nhrs/prod-nhrs.php) that measures the ability of compounds to antagonize full-length human Mineralocorticoid Receptor (MR) binding to a coactivator peptide.
Stock solution was prepared at 10 μM in DMSO and stored at −20° C. for assay, dilute in assay media to 1.8 or 6 nM (6× of final concentration=about 0.3 nM to about 1.0 nM)
5. Cell line: PathHunter CHO-K1 MR cells Cat #93-0456C2, Lot No: 09B0913, from operation liquid nitrogen stock.
6. Control Antagonist: Spironolactone: Sigma #S-3378 and Eplerenone Sigma #107724-20-9 (10 mM stock concentration also prepared in DMSO and stored at −20° C.).
1. Cells are grown in F12+FBS+Hygromycin+pen/strep+Genetin
2. Cells are collected with 0.05% trypsin and the cell suspension is spun and resuspended in a volume of F12+1.5% CD-FBS and counted.
3. The cells concentration was adjusted to 4×10^5 cells/mL.
4. Cells were (25 μL/well) added to the wells of a 384 well plate.
5. The plate was then incubated at 37° C. over night in a humidified incubator with 5% CO2.
6. Test compounds were titrated starting at 4.4 mM, 10-point titration in 1:3 dilution.
Protocol for 384 well plate format: 6 hr treatment:
1. 10K exponentially growing cells/well (25 μL) were resuspended in assay media and plated into each well using the Multidrop (Thermo Electron) (use white wall, clear bottom assay plates (Costar #3570) and incubated overnight at 37° C., 5% CO2.
2. 0.25 μL 120× test compound (final DMSO concentration should be <1%) was added to each well n=2, 10 point titrations starting at 36.7 μM final concentration.
4. 5 μL of assay media was added to all wells in column 23 and 24.
5. Cells were then incubated for 6 hrs at 37° C., 5% CO2.
6. 15 μL 3× DiscoveRx detection reagent was then added to each well.
7. Plates were incubated for 1 hour at room temperature in the dark.
8. Plates were read on Envision (PerkinElmer) luminesence plate reader and analyzed using ADA.

SMILES | IC50 [nM]
CCC(c1ccc(C(F)(F)F)cc1)(C(O)C(F)F)n1ncc2c(NS(C)(=O)=O)cccc21 (single isomer, unassigned) [Compound 48, N-(1-(1,1-difluoro-2-hydroxy-3-(4-(trifluoromethyl)phenyl)pentan-3-yl)-1H-indazol-4-yl)methanesulfonamide] | 6
CCC(O)C(CC(F)F)(c1ccc(C(F)(F)F)cc1)n1ncc2c(NS(=O)(=O)CC)cccc21 (single isomer, unassigned) [Compound 55, N-(1-(1,1-difluoro-4-hydroxy-3-(4-(trifluoromethyl)phenyl)hexan-3-yl)-1H-indazol-4-yl)ethanesulfonamide] | 18
CCC(O)C(CC)(c1ccc(Br)cc1)n1ncc2c(NS(C)(=O)=O)cccc21 (single isomer, unassigned) [Compound 8, N-(1-(3-(4-bromophenyl)-4-hydroxyhexan-3-yl)-1H-indazol-4-yl)methanesulfonamide] | 1190
CCC(c1ccc(S(F)(F)(F)(F)F)cc1)(C(C)O)n1ncc2c(NS(C)(=O)=O)cccc21 (single isomer, unassigned) [Compound 23, N-(1-{2-hydroxy-3-[4-(pentafluoro-λ^6-sulfanyl)phenyl]pentan-3-yl}-1H-indazol-4-yl)methanesulfonamide] | 4740
CCC(O)C(CC)(c1ccc(Br)cc1)n1ncc2c(NS(C)(=O)=O)cccc21 (single isomer, unassigned) [Compound 5, N-(1-(3-(4-bromophenyl)-4-hydroxyhexan-3-yl)-1H-indazol-4-yl)methanesulfonamide] | 8
CCC(O)C(CC(F)F)(c1ccc(C(F)(F)F)cc1)n1ncc2c(NS(C)(=O)=O)cccc21 (single isomer, unassigned) [Compound 40, N-(1-(1,1-difluoro-4-hydroxy-3-(4-(trifluoromethyl)phenyl)hexan-3-yl)-1H-indazol-4-yl)methanesulfonamide] | 15
CCC(c1ccc(C(F)(F)F)cc1)(C(C)O)n1ncc2c(NS(C)(=O)=O)cc(F)cc21 (single isomer, unassigned) [Compound 34, N-(6-fluoro-1-(2-hydroxy-3-(4-(trifluoromethyl)phenyl)pentan-3-yl)-1H-indazol-4-yl)methanesulfonamide] | 1140
CCC(O)C(CC)(c1ccc(C#N)cc1)n1ncc2c(NS(C)(=O)=O)cccc21 (single isomer, unassigned) [Compound 15, N-(1-(3-(4-cyanophenyl)-4-hydroxyhexan-3-yl)-1H-indazol-4-yl)methanesulfonamide] | 56
CCC(O)C(CC(F)F)(c1ccc(C(F)(F)F)cc1)n1ncc2c(NS(C)(=O)=O)cccc21 (single isomer, unassigned) [Compound 42, N-(1-(1,1-difluoro-4-hydroxy-3-(4-(trifluoromethyl)phenyl)hexan-3-yl)-1H-indazol-4-yl)methanesulfonamide] | 1370
CCC(c1ccc(Br)cc1)(C(C)O)n1ncc2c(NS(C)(=O)=O)cccc21 (single isomer, unassigned) [Compound 1, N-(1-(3-(4-bromophenyl)-2-hydroxypentan-3-yl)-1H-indazol-4-yl) methanesulfonamide] | 10
CCC(c1ccc(C(F)(F)F)cc1)(C(O)C(F)F)n1ncc2c(NS(=O)(=O)CC)cccc21 (single isomer, unassigned) [Compound 49, N-(1-(1,1-difluoro-2-hydroxy-3-(4-(trifluoromethyl)phenyl)pentan-3-yl)-1H-indazol-4-yl)ethanesulfonamide] | 7
CCC(c1ccc(S(F)(F)(F)(F)F)cc1)(C(C)O)n1ncc2c(NS(C)(=O)=O)cccc21 (single isomer, unassigned) [Compound 21, N-(1-{2-hydroxy-3-[4-(pentafluoro-λ^6-sulfanyl)phenyl]pentan-3-yl}-1H-indazol-4-yl)methanesulfonamide] | 333
CCC(O)C(CC)(c1ccc(C(F)(F)F)cc1)n1ncc2c(NS(C)(=O)=O)cc(F)cc21 (single isomer, unassigned) [Compound 18, N-(6-fluoro-1-(4-hydroxy-3-(4-(trifluoromethyl)phenyl)hexan-3-yl)-1H-indazol-4-yl)methanesulfonamide] | 9
CCC(CO)(c1ccc(C(F)(F)F)cc1)n1ncc2c(NS(C)(=O)=O)cccc21 (single isomer, unassigned) [Compound 11, N-(1-(1-hydroxy-2-(4-(trifluoromethyl)phenyl)butan-2-yl)-1H-indazol-4-yl)methanesulfonamide] | 60
CC(O)C(CC(F)F)(c1ccc(C(F)(F)F)cc1)n1ncc2c(NS(C)(=O)=O)cccc21 (single isomer, unassigned) [Compound 38, N-(1-(1,1-difluoro-4-hydroxy-3-(4-(trifluoromethyl)phenyl)pentan-3-yl)-1H-indazol-4-yl)methanesulfonamide] | 596
CCC(c1ccc(S(F)(F)(F)(F)F)cc1)(C(C)O)n1ncc2c(NS(C)(=O)=O)cccc21 (single isomer, unassigned) [Compound 24, N-(1-{2-hydroxy-3-[4-(pentafluoro-λ^6-sulfanyl)phenyl]pentan-3-yl}-1H-indazol-4-yl)methanesulfonamide] | 152
CCC(c1ccc(C(F)(F)F)cc1)(C(C)O)n1ncc2c(NS(C)(=O)=O)cc(F)cc21 (single isomer, unassigned) [Compound 33, N-(6-fluoro-1-(2-hydroxy-3-(4-(trifluoromethyl)phenyl)pentan-3-yl)-1H-indazol-4-yl)methanesulfonamide] | 1110
CCC(C(N)=O)(c1ccc(S(F)(F)(F)(F)F)cc1)n1ncc2c(NS(C)(=O)=O)cccc21 (racemic) [Compound 27, 2-{4-[(methylsulfonyl)amino]-1H-indazol-1-yl}-2-[4-(pentafluoro-λ^6-sulfanyl)phenyl]butanamide] | 3610
CCC(c1ccc(C(F)(F)F)cc1)(C(O)C(F)F)n1ncc2c(NS(=O)(=O)CC)cc(F)cc21 (single isomer, unassigned) [Compound 54, N-(1-(1,1-difluoro-2-hydroxy-3-(4-(trifluoromethyl)phenyl)pentan-3-yl)-6-fluoro-1H-indazol-4-l)ethanesulfonamide] | 12
CCC(O)C(CC)(c1ccc(S(F)(F)(F)(F)F)cc1)n1ncc2c(NS(C)(=O)=O)cccc21 (single isomer, unassigned) [Compound 25, N-(1-{4-hydroxy-3-[4-(pentafluoro-λ^6-sulfanyl)phenyl]hexan-3-yl}-1H-indazol-4-yl)methanesulfonamide] | 48
CS(=O)(=O)Nc1cccc2c1cnn2C(CO)(CC(F)F)c1ccc(C(F)(F)F)cc1 (single isomer, unassigned) [Compound 43, N-(1-(4,4-difluoro-1-hydroxy-2-(4-(trifluoromethyl)phenyl)butan-2-yl)-1H-indazol-4-yl)methanesulfonamide] | 388
CCC(O)C(CC)(c1ccc(C#N)cc1)n1ncc2c(NS(C)(=O)=O)cc(F)cc21 (single isomer, unassigned) [Compound 19] | 136

— patent US9511052B2, “Mineralocorticoid receptor antagonists” (Merck Sharp & Dohme Corp., priority 2012, dated 2016)
